Experimental data: patent US20260265199A1, “CRYSTALLINE FORMS OF (R)-2-AMINO-5-(4-(2-(3,5-DIFLUOROPHENYL)-2-HYDROXYACETAMIDO)-2-METHYLPHENYL)-N-ISOPROPYLNICOTINAMIDE AND METHODS FOR USING THE SAME” (HIBERCELL, INC., priority 2023, published 2026)
Structures can show the parent of a compound that is named as a salt. Where two headings read alike, the source gives them in different places.

What was measured:
Format in all cases: physicochemical
[1] = Physical stability of Form C at ambient conditions (XRPD)
Experimental: The initial samples were then analyzed by XRPD. Thereafter, the vials were sealed and the samples were allowed to sit at ambient conditions for 9, 13, or 25 days (as designated in Table 35). The samples were then reanalyzed by XRPD.

[2] = Variable temperature study of Form B (cycling DSC, VT-XRPD)
Experimental: XRPD patterns were collected with a PANalytical X'Pert PRO MPD diffractometer using an incident beam of Cu Kα radiation produced using a long, fine-focus source and a nickel filter. The diffractometer was configured using the symmetric Bragg-Brentano geometry. Data were collected and analyzed using Data Collector software v. 5.5. Prior to the analysis, a silicon specimen (NIST SRM 640e) was analyzed to verify the observed position of the Si 111 peak is consistent with the NIST-certified position. A specimen of the sample was packed in a nickel-coated copper well. Anti-scatter slits (SS) were used to minimize the background generated by air scattering. Soller slits for the incident and diffracted beams were used to minimize broadening from axial divergence. Diffraction patterns were collected using a scanning position-sensitive detector (X'Celerator) located 240 mm from the sample. The data acquisition parameters for each pattern are disclosed, including the divergence slit (DS) and the incident-beam SS.
An Anton Paar TTK 450 stage was used to collect in-situ XRPD patterns as a function of temperature. The sample was heated with a resistance heater located directly under the sample holder, and the temperature was monitored with a platinum-100 resistance sensor located in the specimen holder. The heater was powered and controlled by an Anton Paar TCU 100 interfaced with Data Collector.
DSC was performed using a Mettler-Toledo DSC3+ differential scanning calorimeter. A tau lag adjustment was performed with indium, tin, and zinc. The temperature and enthalpy were adjusted with octane, phenyl salicylate, indium, tin, and zinc. The adjustment was then verified with octane, phenyl salicylate, indium, tin, and zinc. The sample was placed into a hermetically sealed aluminum DSC pan, and the weight was accurately recorded. The pan was then inserted into the DSC cell. A weighed aluminum pan configured as the sample pan was placed on the reference side of the cell. The pan lid was pierced prior to sample analysis. Samples were analyzed from −30° C. to 250° C. @ 10°/min. The cyclic DSC method heated from −30° C. to 100° C., returned to −30° C., then heated to 250° C. at 10°/min.
The thermal events associated with heating Form B, prepared according to Example 30, were further investigated by cycling DSC and variable temperature XRPD (FIG. 33 and FIG. 34, respectively). […] This phase transition was confirmed by VT-XRPD (see the diffraction pattern obtained at 100° C. in FIG. 34). During the first DSC cooling cycle, an exotherm at approximately 35° C. was observed. […] During the final DSC heating cycle, Form B first undergoes a phase transition to Material F at approximately 67° C. (endotherm). […] (endotherm) and immediately recrystallize as Form A (exotherm onset at approximately 164° C.). […] Determining which solid form was obtained after recrystallization was confirmed by VT-XRPD (the pattern obtained at approximately 175° C., FIG. 34).
It is believed that this solid state behavior can be explained due to the relative stability of Form B and Material F is reversed in passing the transition temperature. For enantiotropic systems where hysteresis is minimal within the timescale measured, the transition temperature must lie between the onset temperatures of the observed endotherm and exotherm. Therefore, a transition temperature of ~49° C. was estimated from the thermogram with the use of the lever rule.
The XRPD acquisition parameters used to collect the VT-XRPD data presented in Table 33 are as follows: X-ray Tube: Cu (1.54059 Å); voltage: 45 kV; amperage: 40 mA; scan range: 3.50-29.99° 2θ; step size: 0.017° 2θ; scan speed: 1.7° per minute; slit: DS: fixed slit ¼°; SS: fixed slit: ½°; revolution time: 0.0 null; and mode: reflection. The XRPD data collection times for the experiment are specified in Table 33.

[3] = Solubility of mono-fumarate Form A estimated by solvent addition, visual assessment
Source text: The solubility of Form A of the mono-fumarate salt of the compound of formula (I) was estimated using solvent addition method via visual assessment of the samples.

[4] = Slurry study of Form A of the mono-fumarate salt (XRPD of solids)
Experimental: XRPD patterns of samples were collected using with an X-ray diffractometer (Bruker D8 advance). The system was equipped with LynxEye detector. Samples were scanned from 3 to 40° 2θ, at a step size 0.02° 2θ. The tube voltage and current were 40 KV and 40 mA, respectively.
Slurry studies were conducted using 12 solvents at RT or 50° C. Solid samples were collected by filtration and analyzed by XRPD at a specific time.

Cc1cc(NC(=O)[C@H](O)c2cc(F)cc(F)c2)ccc1-c1cnc(N)c(C(=O)NC(C)C)c1 [Form C, (R)-2-amino-5-(4-(2-(3,5-difluorophenyl)-2-hydroxyacetamido)-2-methylphenyl)-N-isopropylnicotinamide]
Result (XRPD) ([1]; Acetone, ambient conditions, stored for 13 days): Form B (FIG. 38B)
Result (XRPD) ([1]; Acetone, initial sample): Form B + Form C
Result (XRPD) ([1]; MeCN, ambient conditions, stored for 25 days): Form B (FIG. 38D)
Result (XRPD) ([1]; MeCN, initial sample): Form C (FIG. 38C)
Result (XRPD) ([1]; MeCN/water, ambient conditions, stored for 9 days): Form C + Form B
Result (XRPD) ([1]; MeCN/water, initial sample): Form C (FIG. 38E)
Physical stability of Form C (XRPD) ([1]; ambient conditions, irrespective of solvent system used to prepare Form C): desolvates and either partially converts or fully converts to Form B within days
Solid form (XRPD) after storage ([1]; sample obtained from acetonitrile and water, ambient conditions, 9 days): mixture of Form B and Form C
Solid form (XRPD) after storage ([1]; sample obtained from acetonitrile, ambient conditions, 25 days): Form B

Cc1cc(NC(=O)[C@H](O)c2cc(F)cc(F)c2)ccc1-c1cnc(N)c(C(=O)NC(C)C)c1 [Form B, (R)-2-amino-5-(4-(2-(3,5-difluorophenyl)-2-hydroxyacetamido)-2-methylphenyl)-N-isopropylnicotinamide]
Result (VT-XRPD) ([2]; 30° C., 1st scan in table order): Form B
Result (VT-XRPD) ([2]; 30° C., 4th scan in table order): Material F
Result (VT-XRPD) ([2]; 30° C., 8th scan in table order): Form A
Result (VT-XRPD) ([2]; 75° C., 2nd scan in table order): Form B
Result (VT-XRPD) ([2]; 75° C., 5th scan in table order): Material F
Result (VT-XRPD) ([2]; 100° C., 3rd scan in table order): Material F
Result (VT-XRPD) ([2]; 100° C., 6th scan in table order): Material F
Result (VT-XRPD) ([2]; 175° C., 7th scan in table order): Form A^1
Relative stability of Form B vs Material F (enantiotropes) ([2]; below the transition temperature): more stable, relative to Material F, below the transition temperature

Cc1cc(NC(=O)[C@H](O)c2cc(F)cc(F)c2)ccc1-c1cnc(N)c(C(=O)NC(C)C)c1 [Form A of the mono-fumarate salt, (R)-2-amino-5-(4-(2-(3,5-difluorophenyl)-2-hydroxyacetamido)-2-methylphenyl)-N-isopropylnicotinamide]
solubility ([3]; EtOAc, organic solvent or mixture, thermodynamic from solid, EtOAc, read-out: Solubility): > 3 mg/mL
solubility ([3]; EtOH, organic solvent or mixture, thermodynamic from solid, EtOH, read-out: Solubility): > 22.5 mg/mL
solubility ([3]; IPA, organic solvent or mixture, thermodynamic from solid, IPA, read-out: Solubility): > 23.4 mg/mL
solubility ([3]; IPAc, organic solvent or mixture, thermodynamic from solid, IPAc, read-out: Solubility): > 2.1 mg/mL
solubility ([3]; MEK, organic solvent or mixture, thermodynamic from solid, MEK, read-out: Solubility): > 11.7 mg/mL
solubility ([3]; MTBE, organic solvent or mixture, thermodynamic from solid, MTBE, read-out: Solubility): > 4.2 mg/mL
solubility ([3]; MeCN, organic solvent or mixture, thermodynamic from solid, MeCN, read-out: Solubility): > 2.2 mg/mL
solubility ([3]; MeOH): >53.2 mg/mL
solubility ([3]; MeOH, organic solvent or mixture, thermodynamic from solid, MeOH, read-out: Solubility): > 50 mg/mL
solubility ([3]; THF): >52.6 mg/mL
solubility ([3]; THF, organic solvent or mixture, thermodynamic from solid, THF, read-out: Solubility): > 50 mg/mL
solubility ([3]; acetone, organic solvent or mixture, thermodynamic from solid, Acetone, read-out: Solubility): > 13.4 mg/mL
solubility ([3]; heptane, organic solvent or mixture, thermodynamic from solid, Heptane, read-out: Solubility): < 1 mg/mL
solubility ([3]; isobutanol, organic solvent or mixture, thermodynamic from solid, Isobutanol, read-out: Solubility): > 11.1 mg/mL
solubility ([3]; toluene, organic solvent or mixture, thermodynamic from solid, Toluene, read-out: Solubility): < 1.1 mg/mL
solubility ([3]; water, thermodynamic from solid, Water, read-out: Solubility): < 1.1 mg/mL
XRPD result after slurry ([4]; 2-Butanone, 50° C., 2 days): Mono-fumarate Form A
XRPD result after slurry ([4]; 2-Butanone, room temperature, 5 days): Mono-fumarate Form A
XRPD result after slurry ([4]; Acetone, 50° C., 2 days): Mono-fumarate Form A
XRPD result after slurry ([4]; Acetone, room temperature, 5 days): Mono-fumarate Form A
XRPD result after slurry ([4]; EtOAc, 50° C., 2 days): Low crystallinity
XRPD result after slurry ([4]; EtOAc, room temperature, 5 days): Low crystallinity
XRPD result after slurry ([4]; EtOH, room temperature, 5 days): Solid
XRPD result after slurry ([4]; Heptane, 50° C., 2 days): Mono-fumarate Form A
XRPD result after slurry ([4]; Heptane, room temperature, 5 days): Mono-fumarate Form A
XRPD result after slurry ([4]; IPA, 50° C., 2 days): Hemi-fumarate Form A
XRPD result after slurry ([4]; IPA, room temperature, 5 days): Hemi-fumarate Form A
XRPD result after slurry ([4]; IPAc, 50° C., 2 days): Hemi-fumarate Form A
XRPD result after slurry ([4]; IPAc, room temperature, 5 days): Low crystallinity
XRPD result after slurry ([4]; Isobutanol, 50° C., 2 days): Hemi-fumarate Form A
XRPD result after slurry ([4]; Isobutanol, room temperature, 5 days): Hemi-fumarate Form A
XRPD result after slurry ([4]; MTBE, 50° C., 2 days): Hemi-fumarate Form A
XRPD result after slurry ([4]; MTBE, room temperature, 5 days): Low crystallinity
XRPD result after slurry ([4]; MeCN, room temperature, 5 days): Low crystallinity
XRPD result after slurry ([4]; Toluene, 50° C., 2 days): Hemi-fumarate Form A
XRPD result after slurry ([4]; Toluene, room temperature, 5 days): Low crystallinity
XRPD result after slurry ([4]; Water, 50° C., 2 days): Alternative pattern
XRPD result after slurry ([4]; Water, room temperature, 5 days): Alternative pattern
